For data set [1], the system named is Ramos cells (B lymphocyte cells). The experiment in a line: Growth inhibition of Ramos cells. It counts as cell-based. As to conditions: Homo sapiens. The procedure:
(§1) Stock solutions of each compound in DMSO were diluted with the appropriate media to 100 nM solutions (1% DMSO), which were then serially diluted with the appropriate media, and 100-uL aliquots of the resulting solutions were added to the wells containing adhered cells to achieve final concentrations of 0.39 nM to 50 nM. After incubating at 37° C. for 72 h (5% CO2), 20 μL of resazurin solution (Promega CellTiter-Blue® Cell Viability Assay) was added to each well. After incubating at 37° C. for 2.0 h (5% CO2), the fluorescence (544 nm excitation/590 nm emission) was recorded using a microplate reader (SpectraMax PLUS384) as a measure of viable cells.
(§2) Percent growth inhibition was calculated for each well, based upon the following formula: Percent growth inhibition=100×(S−B0)/(Bt−B0) where S is the sample fluorescence, Bt is the average fluorescence of an untreated population of cells at the completion of the assay, and B0 is the average fluorescence of an untreated population of cells at the beginning of the assay.
(§3) Each compound was assayed at eight separate concentrations per experiment. The percent inhibition at each concentration was plotted against log (concentration), and a curve fit was generated using the XLfit4 plugin (IDBS Software) running in Excel (Microsoft). GI50 values were computed to reflect the concentrations at which the resulting curves pass through 50% inhibition.

The test system of the next data set is MES-SA/Dx-5 cells. The experiment in a line: Cell proliferation assay (resazurin, CellTiter-Blue), MES-SA/Dx-5 cells. Particulars: Homo sapiens. It counts as cell-based. The procedure: (§4) Cell Culture: All cell-culture work was conducted in a class II biological safety cabinet. H460 cells (P2-P4, American Type Culture Collection) were maintained in RPMI-1640 medium supplemented with 10% fetal bovine serum (FBS). HL-60 cells (P2-P4, American Type Cuture Collection) were maintained in RPMI-1640 medium supplemented with 10% FBS. MES-SA/Dx-5 cells (P2-P4, European Collection of Authenticated Cell Cultures) were maintained in McCoy's 5A medium supplemented with 10% FBS.
(§5) Cell Proliferation Assay: H460 and MES-SA/Dx-5 cells were grown to approximately 80% confluence, and then were trpysinized, collected, and pelleted by centrifugation (10 min at 183 x g, 24° C.), and HL-60 cells were grown to confluence and directly pelleted by centrifugation (10 min at 183 × g, 24° C.). The supernatant was discarded and the cell pellet was resuspended in 10 mL of fresh medium. A sample was diluted 10-fold in fresh medium, and the concentration of cells was determined using a hemacytometer. The cell suspension was diluted to a concentration of 3000 cells/100 μL. The wells of a pre-sterilized 96-well plate were charged with 100 μL per well of the diluted cellular suspension. The plate was incubated for 24 h at 37° C. (5% CO2).
as §1, §2, §3
In general terms: Resazurin is reduced to fluorescent resorufin, in cell work by metabolically active cells.

For data set [2] the following is noted: patients with metastatic cancer; only problematic at doses beyond those which affected tumor volume decrease; cited from earlier work.
In a further data set the target is T1, cathepsin B (Homo sapiens, UniProt P07858).
T1 construct: purchased Enzo Life Sciences
The experiment in a line: Drug-linker release assay with cathepsin B (LC-MS). As to conditions: cathepsin B enzyme solution in buffer; cathepsin B added, pH 5.0 sodium acetate buffer, 37 C; read-out: Half-life of liberation of the C16 primary amine warhead. It counts as in vitro ADME. The procedure: Release Assay: In a 1.5 mL screw-top conical plastic vial, 42 was dissolved in 270 μL of DMSO (5 mM). 12 μL of this DMSO drug-linker solution was mixed with a DMSO solution of N-acetylcysteine (10 mM, 12 μL, 2 equiv.). To the solution was then added 510 μL pH 5.0 sodium acetate buffer (50 mM sodium acetate, 100 mM NaCl, 4 mM EDTA, 8 mM N-acetylcysteine). 1—Naphthalene acetic acid in DMSO (12 μL, 5 mM, 1 equiv.) was added as an internal standard. The vial was then placed in a heating block at 37 C for 30 minutes. After 30 minutes, 54 μL of cathepsin B solution (379 U/mL, Enzo Life Sciences) was added. The vial was returned to the heating block at 37 C and protected from direct light. 25 μL aliquots of the reaction mixture were removed at 0 min, 20 min, 40 min, 60 min, 120 min, and 180 min and analyzed by LC-MS. LC-MS peaks were integrated using Agilent OpenLab ChemStation and the areas of each peak were normalized to 1-napthalene acetic acid at 280 nM. Percent drug-linker remaining is defined as the normalized peak area at a given time point divided by the normalized peak area at 0 hours×100% (FIG. 2A). A similar procedure was used for the release assay of 39, using glucuronidase instead of cathepsin B (FIG. 2B).

A short description of data set [3]: Drug-linker stability assay (LC-MS). It counts as physicochemical. Particulars: after 1 week, physiologically relevant pH and temperature (37 C). Here is the method:
Stability Assay: In a 1.5 mL screw-top conical plastic vial, 42 (FIG. 1A) or 39 (FIG. 1B) was dissolved in 270 μL of DMSO (5 mM). 12 μL of this DMSO drug-linker solution was mixed with 576 μL pH 5.0 sodium acetate buffer (50 mM sodium acetate, 100 mM NaCl, 4 mM EDTA). 1-naphthalene acetic acid in DMSO (12 μL, 5 mM, 1 equiv.) was added as an internal standard. The vial was then placed in a heating block at 37 C and protected from direct light. 25 μL aliquots of the reaction mixture were removed at 0 h, 4 h, 24 h, 48 h, 72 h, and 1 week and analyzed by LC-MS. LC-MS peaks were integrated using Agilent OpenLab ChemStation and the areas of each peak were normalized to 1-napthalene acetic acid at 280 nM. Percent drug-linker remaining is defined as the normalized peak area at a given time point divided by the normalized peak area at 0 hours x 100%. Each assay was also performed at pH 7.4 (phosphate-buffered solution, Corning), and assays at each pH value were performed with and without the addition of 8 mM N-acetylcysteine.

The nature of data set [4]: 1H NMR studies of decomposition of the C16 thiol. It counts as physicochemical. As to conditions: on an hour time scale.
The next data set relates to H460 cells. The experiment in a line: Cell proliferation assay (resazurin, CellTiter-Blue), H460 cells. It counts as cell-based. Particulars: for GI50: Homo sapiens, NCI-H460, 72 h; for Effect of the C16 modification on potency (in words): comment on the data of Table 2 (H460 cells). Here is the method:
as §4, §5, §1, §2, §3

Where [5] appears, read: MES-SA/Dx5, MES-SA/Dx-5 cells, 72 h incubation, read-out: GI50.

Where two headings read alike, the source gives them in different places.

The values below come from US20250144227A1, “C-16 MODIFIED TRIOXACARCINS, ANTIBODY DRUG CONJUGATES, AND USES THEREOF” (President and Fellows of Harvard College, priority 2021, published 2025).

A word on the GI50: it is the concentration giving 50% growth inhibition.

`COCC12OC3c4c(C)cc5c(OC)c6c(c(O)c5c4O[C@](OC)(C3O1)[C@@]21CO1)C(=O)CCC6` (stereo partly drawn) [compound 43, (2R,2′R,3a′R,4'S, 13a′R)-12′-hydroxy-7′, 13a′-dimethoxy-2′-(methoxymethyl)-5′-methyl-3a′ 4′,8′,9′,10′,13a′-hexahydro-2′H, 11′H-spiro[oxirane-2,1′-[2,4]epoxyfuro[3,2-b]naphtho[2,3-h]chromen]-11′-one] came in with a GI50 in data set [1] of 0.0026 ± 0.0008 µM. In the case of `COc1c2c(c(O)c3c4c(c(C)cc13)C1OC3(COCc5ccccc5)OC1[C@@](O)(O4)[C@@]31CO1)C(=O)CCC2` (stereo partly shown) [TP-4], the 50% growth inhibitory concentration (GI50) in the data set on MES-SA/Dx-5 cells (setting [5]) was more than 0.1 µM. As for LL-D49194a1, the Dose-limiting toxicity result in data set [2] is listed as “pancarditis was the only significant dose-limiting toxicity”. On to `C=CCOCC12OC3c4c(C)cc5c(OC)c6c(c(O)c5c4O[C@](OC)(C3O1)[C@@]21CO1)C(=O)CCC6` (stereo partly shown) [TP-6], for which the 50% growth inhibitory concentration (GI50) in the data set on MES-SA/Dx-5 cells (setting [5]) was 0.017 µM. In the case of `COc1c2c(c(O)c3c4c(c(C)cc13)[C@H]1O[C@]3(CNC(=O)OCc5ccc(NC(=O)[C@H](C)NC(=O)[C@@H](NC(=O)CCOCCOCCOCCOCCN6C(=O)C=CC6=O)C(C)C)cc5)O[C@@H]1C(OC)(O4)[C@@]31CO1)C(=O)CCC2` (stereo partly drawn) [compound 42, 4-((17S,20S)-1-(2,5-dioxo-2,5-dihydro-1H-pyrrol-1-yl)-17-isopropyl-20-methyl-15,18-dioxo-3,6,9,12-tetraoxa-16,19-diazahenicosan-21-amido)benzyl (((2R,2′R,3a'S,4′R)-12′-hydroxy-7′,13a′-dimethoxy-5′-methyl-11′-oxo-3a′,8′,9′,10′, 11′, 13a′-hexahydro-2′H,4′H-spiro [oxirane-2,1′-[2,4]epoxyfuro[3,2-b]naphtho[2,3-h]chromen]-2′-yl)methyl)carbamate], at cathepsin B, the half-life at 100 µM is approximately 15 min. In data set [3], the Percent drug-linker remaining was 75%. As to `COc1c2c(c(O)c3c4c(c(C)cc13)C1OC3(COC5CC(C)(O)C(OC(C)=O)C(C)O5)OC1[C@@](OC)(O4)[C@@]31CO1)C(=O)CCC2` (stereo partly shown) [TP-12], the GI50 with MES-SA/Dx-5 cells (MES-SA/Dx5, 72 h) amounted to 0.05 µM.

For `COc1c2c(c(O)c3c4c(c(C)cc13)C1OC3(CN=[N+]=[N-])OC1[C@@](OC)(O4)[C@@]31CO1)C(=O)CCC2` (stereo partly shown) [TP-9], the GI50 in the data set with MES-SA/Dx-5 cells (MES-SA/Dx5, 72 h) was found to be 0.033 µM. With `COc1c2c(c(O)c3c4c(c(C)cc13)C1OC3(CS)OC1[C@@](OC)(O4)[C@@]31CO1)C(=O)CCC2` (stereo partly drawn) [compound 34, (25,2'S,3a′R,13a′R)-12′-hydroxy-2′-(mercaptomethyl)-7′,13a′-dimethoxy-5′-methyl-3a′, 4′,8′,9′,10′,13a′-hexahydro-2′H,11′H-spiro [oxirane-2,1′-[2,4]epoxyfuro[3,2-b]naphtho[2,3-h]chromen]-11′-one], the “Decomposition of the unprotected thiol” value in data set [4] is reported as “rapid, non-productive, decomposition pathway”. Moreover, in the data set with H460 cells, the 50% growth inhibitory concentration (GI50) was more than 0.1 µM and the “Effect of the C16 modification on potency (in words)” value is listed as “lack of activity”. In the data set with MES-SA/Dx-5 cells (MES-SA/Dx5, 72 h), `C#CCOCC12OC3c4c(C)cc5c(OC)c6c(c(O)c5c4O[C@](OC)(C3O1)[C@@]21CO1)C(=O)CCC6` (stereo partly shown) [TP-7] displayed a GI50 of 0.015 µM. Still for that read-out and setting: the figure for `COc1c2c(c(O)c3c4c(c(C)cc13)C1OC3(CO)OC1[C@@](OC)(O4)[C@@]31CO1)C(=O)CCC2` (stereo partly shown) [TP-1] is 0.008 µM. On to `COc1c2c(c(O)c3c4c(c(C)cc13)C1OC3(COC5CC(C)(O)C(OC(C)=O)C(C)O5)OC1[C@@](OC)(O4)[C@@]31CO1)C(=O)CCC2` (stereo partly drawn) [compound 30, (25,3S,4R,6S)-4-Hydroxy-6-(((2R,13a′R)-12′-hydroxy-7′,13a′-dimethoxy-5′-methyl-11′-oxo-3a′,8′,9′,10′,11′,13a′-hexahydro-2′H,4′H-spiro [oxirane-2,1′-[2,4]epoxyfuro[3,2-b]naphtho[2,3-h]chromen]-2′-yl)methoxy)-2,4-dimethyltetrahydro-2H-pyran-3-yl acetate], for which, in the data set on H460 cells, halving of growth (GI50) required 0.02 µM and the “Effect of the C16 modification on potency (in words)” value is given as “well tolerated”. Regarding `COc1c2c(c(O)c3c4c(c(C)cc13)[C@@H]1O[C@]3(CNC(=O)OCc5ccc(O[C@@H]6O[C@H](C(=O)O)[C@@H](O)[C@H](O)[C@H]6O)c(-n6cc(COCCOCCOCCOCCN7C(=O)C=CC7=O)nn6)c5)O[C@H]1[C@@](OC)(O4)[C@@]31CO1)C(=O)CCC2` [compound 39, (2S,3S,4S,5R,6S)-6-(2-(4-(13-(2,5-Dioxo-2,5-dihydro-1H-pyrrol-1-yl)-2,5,8,11-tetraoxatridecyl)-1H-1,2,3-triazol-1-yl)-4-((((((2R,2′R,3a′R,4'S,13a′R)-12′-hydroxy-7′,13a′-dimethoxy-5′-methyl-11′-oxo-3a′,8′,9′,10′,11′,13a′-hexahydro-2′H, 4′H-spiro [oxirane-2,1′-[2.4]epoxyfuro[3,2-b]naphtho[2,3-h]chromen]-2′-yl)methyl)carbamoyl)oxy)methyl)phenoxy)-3,4,5-trihydroxytetrahydro-2H-pyran-2-carboxylic acid], the Percent drug-linker remaining in data set [3] is 75%. In data set [1], `COc1c2c(c(O)c3c4c(c(C)cc13)C1OC3(C)OC1[C@@](OC)(O4)[C@@]31CO1)C(=O)CCC2` (stereo partly drawn) [compound 45, (2R,2′R,3a'S,4'S)-12′-hydroxy-7′,13a′-dimethoxy-2′,5′-dimethyl-3a′ 4′,8′,9′,10′,13a′-hexahydro-2′H,11′H-spiro [oxirane-2,1′-[2,4]epoxyfuro[3,2-b]naphtho[2,3-h]chromen]-11′-one] came in with a GI50 of 0.02 ± 0.005 µM. As to `CCCOCC12OC3c4c(C)cc5c(OC)c6c(c(O)c5c4O[C@](OC)(C3O1)[C@@]21CO1)C(=O)CCC6` (stereo partly shown) [TP-5], in the data set on MES-SA/Dx-5 cells (setting [5]), the concentration for 50% growth inhibition (GI50) was 0.025 µM. On to `C#CCOCC12OC3c4c(C)cc5c(OC)c6c(c(O)c5c4O[C@](OC)(C3O1)[C@@]21CO1)C(=O)CCC6` (stereo partly drawn) [compound 24, (2R,2′R,3a′R,13a′R)-12′-Hydroxy-7′,13a′-dimethoxy-5′-methyl-2′-((prop-2-yn-1-yloxy)methyl)-3a′,4′,8′,9′,10′,13a′-hexahydro-2′H,11′H-spiro[oxirane-2,1′-[2,4]epoxyfuro[3,2-b]naphtho[2.3-h]chromen]-11′-one], for which the 50% growth inhibitory concentration (GI50) in the data set on H460 cells amounted to 0.014 µM.
